According to patent publication US11591334B2, “Substituted pyrrolizines for the treatment of hepatitis B” (SHANGHAI LONGWOOD BIOPHARMACEUTICALS CO., LTD., priority 2017, dated 2023):
Where two headings read alike, the source gives them in different places.

Legend:
C150 protein = target: T1, C150 protein (Hepatitis B virus genotype D subtype adw, UniProt P03147, C107A/C48A/C61A/R150C); experiment: In vitro anti-HBV nucleocapsid assembly activity test (Experiment 1, protein experiment); type: biochemical
T1 construct: purchased WuXi Apptec Co., Ltd
Protocol: Experiment 1: In Vitro Anti-HBV Nucleocapsid Assembly Activity Test
Main Reagents and Raw Materials:
C150 protein was expressed and purified by WuXi Apptec Co., Ltd.
BoDIPY® FL was purchased from Thermo Fisher Scientific.
Protein Fluorescent Label:
150 μL of 2% w/v skimmed milk was added into each well of 96-well plate, and incubated at room temperature for 2 hours. The skimmed milk was aspirated. The plate was washed with deionized water and dried, and stored at room temperature. C150 protein (3 mg per tube) was desalted with 5 ml Hitrap desalting column. The desalted C150 protein of each tube was added with 50 mM BoDIPY® FL Fluorescent Dye (20 μl), and incubated under 4° C. overnight in the dark after well mixed. Sephadex G-25 gel was used for filtration to remove fluorescent dyes that were not bounded onto C150. The C150 fluorescent labeling efficiency was calculated according to the following equation: [BoDIPY®FL]=A504/78,000 M^−1; [C150Bo]=(A280−[BoDIPY®FL]×1300 M^−1)/60,900 M^−1; Fluorescent Labeling Efficiency=[BoDIPY®FL]/[C150Bo];
The mother liquor of compound was diluted with DMSO to 6 mM, then diluted to 600 μM with 50 mM HEPES, and then further 3-fold diluted with 10 DMSO/50 mM HEPES to 8 concentrations.
C150Bo was diluted to 2 μM with 50 mM HEPES. 37.5 μL of C150Bo and 2.5 μL of compound at each concentration were added into a 96 well plate and well mixed, then incubated at room temperature for 15 minutes. 10 μl of 750 mM NaCl/50 mM HEPES were added into the each reaction well, and the final concentration of NaCl was 150 mM.
Into the control wells in the 0% protein group 10 μL of 50 mM HEPES was added, and the final concentration of NaCl was 0 mM.
Into the control wells in the 100% protein group 10 μL of 5 M/50 mM HEPES was added, and the final concentration of NaCl was 1 M.
The final concentration of DMSO was 0.5%, the maximum final concentration of the compound was 30 μM, and final concentration of C150Bo was 1.5 μM. The mixture was incubated at room temperature for 1 hour. Fluorescence signal was measured (excitation light was 485 nm; emission light was 535 nm).
Data Analysis % protein assembly=[1−(Sample fluorescence value−1 M NaCl fluorescence value)/(0 M NaCl fluorescence value−1 M NaCl fluorescence value)]×100.
IC50 value was calculated by prism software, and the equation was as follows: Y=Bottom+(Top−Bottom)/(1+10^((LogIC50−X)HillSlope));

[1] = Determination of cytotoxicity (Experiment 3, resazurin assay); type: cell-based; conditions: human; HepG2 cells, incubated for 4 days, resazurin assay; read-out: Experiment 3 Cytotoxicity CC50
Protocol: Compound dilution. All the compounds for in vitro anti-HBV activity assay and cytotoxicity assay were 3-fold diluted into 8 concentrations. The final concentration of the tested compound was 30 μM, the final starting concentration of reference compound GLS4 was 1 μM, and the final concentration of DMSO was 0.5%. Experiment 3: Determination of Cytotoxicity The cytotoxicity of the test compound was tested using HepG2 cells. The cells were incubated for 4 days in the presence of the test compound. Cell activity was assessed using the resazurin assay.

HBV = experiment: Determination of anti-HBV activity in HepG2.2.15 cell (Experiment 2, HBV DNA in supernatant by qPCR); type: cell-based; conditions: Hepatitis B virus; HepG2.2.15 cells, HBV DNA in supernatant on the eighth day, qPCR; read-out: Experiment 2 Cell experiment EC50
Protocol: Experiment 2: Determination of Anti-HBV Activity in HepG2.2.15 Cell
Compound dilution. All the compounds for in vitro anti-HBV activity assay and cytotoxicity assay were 3-fold diluted into 8 concentrations. The final concentration of the tested compound was 30 μM, the final starting concentration of reference compound GLS4 was 1 μM, and the final concentration of DMSO was 0.5%.
HepG2.2.15 cell (4×10^4 cell/well) was inoculated into 96 well plate, and cultured overnight in 37° C., 5% CO2. On the second day, fresh culture medium containing different concentrations of the compound was added into the culture wells. On the fifth day, the old culture solution in the culture well was aspirated and fresh culture medium containing different concentrations of the compound was added.
On the eighth day, the supernatant in the culture well was collected for extraction of HBV DNA, and the content of DNA in the supernatant of HepG2.2.15 HBV was detected by qPCR. After the supernatant was collected, the medium and Cell-titer Glo reagent were added into the culture well, and the chemiluminescence value of each well was measured by microplate reader.
The activity calculation formula was as follows: Y=Bottom+(Top−Bottom)/(1+10^((LogIC50−X)*Hillslope));

[2] = fluorescently labeled C150 (C150Bo) 1.5 μM, 150 mM NaCl, 1 hour at room temperature, read-out: Experiment 1 Protein experiment IC50

T1 sequence (P03147 1-150 C48A/C61A/C107A/R150C): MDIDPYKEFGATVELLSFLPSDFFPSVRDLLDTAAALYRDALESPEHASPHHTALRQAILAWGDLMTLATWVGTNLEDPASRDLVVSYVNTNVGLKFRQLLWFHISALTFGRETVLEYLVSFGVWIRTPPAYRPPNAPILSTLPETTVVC

Row | SMILES | IC50 (C150 protein) [nM] | CC50 at 4 days [1] [nM] | EC50 (HBV) [nM] | IC50 (C150 protein; [2]) [nM]
1 | CC(NS(=O)(=O)c1c(Cl)c(C(=O)Nc2cc(F)nc(C#N)c2)n2c1C=CC2)C(F)(F)F (stereo not drawn) [Compound 10f] | 1000 to 100000 | > 30000 | 0.1 to 100 | 
2 | C[C@@H](NS(=O)(=O)c1c(Cl)c(C(=O)Nc2ccnc(Cl)c2)n2c1CCCC2)C(F)(F)F [Compound 40c] | 1000 to 100000 | > 30000 | 0.1 to 100 | 
3 | Cc1c(NC(=O)NC(C)C(F)(F)F)c2n(c1C(=O)Nc1ccnc(Cl)c1)CCC2 (stereo not drawn) [Compound 100d] | 1000 to 100000 | > 30000 | 0.1 to 100 | 
4 | C[C@@H](NS(=O)(=O)c1c(Cl)c(C(=O)Nc2ccc(F)c(C#N)c2)n2c1CCCC2)C(F)(F)F [Compound 40b] | 1000 to 100000 | > 30000 | 0.1 to 100 | 
5 | CC(CO)NS(=O)(=O)c1c(Cl)c(C(=O)Nc2ccc(F)c(F)c2)n2c1CCC2 (stereo not drawn) [Compound 20cc] |  | > 30000 | 100 to 1000 | 1000 to 100000
6 | C[C@@H](NS(=O)(=O)c1c(Cl)c(C(=O)Nc2cc(F)c(F)c(F)c2)n2c1C=CC2)C(F)(F)F [Compound 10b] | 1000 to 100000 | > 30000 | 0.1 to 100 | 
7 | Cc1c(S(=O)(=O)NC2C3CCC2CC(O)(c2cc(-c4ccccc4)on2)C3)c2n(c1C(=O)Nc1cc(F)nc(C#N)c1)CCC=C2 (stereo not drawn) [Compound 30t] |  | > 30000 | 100 to 1000 | 1000 to 100000
8 | CC(CO)NS(=O)(=O)c1c(Cl)c(C(=O)Nc2cc(F)nc(C#N)c2)n2c1CCC2 (stereo not drawn) [Compound 20ff] |  | > 30000 | 0.1 to 100 | 1000 to 100000
9 | C[C@@H](NS(=O)(=O)c1c(Cl)c(C(=O)Nc2ccc(F)c(F)c2)n2c1CCCC2)C(F)(F)F [Compound 40a] |  | > 30000 | 0.1 to 100 | < 1000
10 | O=C(Nc1ccc(F)c(F)c1)c1c(Cl)c(S(=O)(=O)NC2C3CCC2CC(O)(CO)C3)c2n1CCC2 (stereo not drawn) [Compound 20kk] |  | > 30000 | 0.1 to 100 | 1000 to 100000
11 | C[C@@H](NS(=O)(=O)c1c(Cl)c(C(=O)Nc2ccc(F)c(F)c2)n2c1C=CCCC2)C(F)(F)F [Compound 50a] |  | > 30000 | 0.1 to 100 | 1000 to 100000
12 | C[C@@H](NS(=O)(=O)c1c(Cl)c(C(=O)Nc2ccc(F)c(F)c2)n2c1CCCCC2)C(F)(F)F [Compound 60a] |  | > 30000 | 0.1 to 100 | > 100000
13 | Cc1c(S(=O)(=O)NC(C)C(F)(F)F)c2n(c1C(=O)Nc1ccc(F)c(F)c1)CCCC2 (stereo not drawn) [Compound 40e] |  | > 30000 | 0.1 to 100 | 1000 to 100000
14 | CC(NC(=O)Nc1c(Cl)c(C(=O)Nc2ccnc(Cl)c2)n2c1CCCCC2)C(F)(F)F (stereo not drawn) [Compound 100q] |  | > 30000 | 0.1 to 100 | 1000 to 100000
15 | CC(CO)NS(=O)(=O)c1c(Cl)c(C(=O)Nc2ccnc(C(F)F)c2)n2c1CCC2 (stereo not drawn) [Compound 20ee] |  | > 30000 | 0.1 to 100 | 1000 to 100000
16 | N#Cc1cc(NC(=O)c2c(Cl)c(S(=O)(=O)NC3C4CCC3CC(O)(c3cc(-c5ccccc5)on3)C4)c3n2CCC=C3)cc(F)n1 (stereo not drawn) [Compound 30s] |  | > 30000 | 100 to 1000 | 1000 to 100000
17 | O=C(Nc1ccc(F)c(F)c1)c1c(Cl)c(S(=O)(=O)NC2C3CCC2CC(O)(c2cc(-c4ccccc4)on2)C3)c2n1CC=C2 (stereo not drawn) [Compound 10oo] |  | > 30000 | 100 to 1000 | 1000 to 100000
18 | C[C@@H](NS(=O)(=O)c1c(Cl)c(C(=O)Nc2ccc(F)c(F)c2)n2c1C=CC2)C(F)(F)F [Compound 10a] |  | > 30000 | 0.1 to 100 | 1000 to 100000
19 | CC(NS(=O)(=O)c1c2[nH]ccc2c(C(=O)Nc2ccc(F)c(C#N)c2)n1C)C(F)(F)F (stereo not drawn) [Compound 80b] |  | > 30000 | 100 to 1000 | 1000 to 100000
20 | CC(NS(=O)(=O)Nc1c(Cl)c(C(=O)Nc2ccnc(Cl)c2)n2c1CCC2)C(F)(F)F (stereo not drawn) [Compound 90b] |  | > 30000 | 0.1 to 100 | 1000 to 100000
21 | C[C@@H](NS(=O)(=O)c1c(Cl)c(C(=O)Nc2ccc(F)c(C#N)c2)n2c1C=CC2)C(F)(F)F [Compound 10c] | 1000 to 100000 | > 30000 | 0.1 to 100 | 
22 | CC(NS(=O)(=O)c1c(Cl)c(C(=O)Nc2cc(F)nc(C#N)c2)n2c1CCCC2)C(F)(F)F (stereo not drawn) [Compound 40d] |  | > 30000 | 0.1 to 100 | 1000 to 100000
23 | Cc1c(S(=O)(=O)NC(C)CO)c2n(c1C(=O)Nc1ccnc(C(F)F)c1)CCC2 (stereo not drawn) [Compound 20ii] |  | > 30000 | 100 to 1000 | 1000 to 100000
24 | C[C@@H](NS(=O)(=O)c1c(Cl)c(C(=O)Nc2ccc(F)c(F)c2)n2c1C=CCC2)C(F)(F)F [Compound 30a] |  | > 30000 | 0.1 to 100 | < 1000
25 | C[C@@H](NS(=O)(=O)c1c(Cl)c(C(=O)Nc2ccnc(Cl)c2)n2c1C=CCC2)C(F)(F)F [Compound 30c] | 1000 to 100000 | > 30000 | 0.1 to 100 | 
26 | Cc1c(S(=O)(=O)NC2C3CCC2CC(O)(CO)C3)c2n(c1C(=O)Nc1ccc(F)c(F)c1)CCC=C2 (stereo not drawn) [Compound 30r] |  | > 30000 | 0.1 to 100 | 1000 to 100000
27 | Cc1c(S(=O)(=O)NC(C)CO)c2n(c1C(=O)Nc1cc(F)nc(C#N)c1)CCC2 (stereo not drawn) [Compound 20jj] |  | > 30000 | 100 to 1000 | 1000 to 100000
28 | CC(NS(=O)(=O)c1c(Cl)c(C(=O)Nc2ccc(F)c(F)c2)n2c1CCC2)C(F)(F)F (stereo not drawn) [Compound 20a] |  | > 30000 | 0.1 to 100 | 1000 to 100000
29 | Cc1c(S(=O)(=O)NC(C)C(F)(F)F)c2n(c1C(=O)Nc1ccc(F)c(F)c1)CC=C2 (stereo not drawn) [Compound 10g] |  | > 30000 | 0.1 to 100 | 1000 to 100000
